Test results: patent US20260049092A1, “ANTIBACTERIAL COMPOUNDS” (Blacksmith Medicines, Inc., priority 2022, published 2026)
≈ marks a conversion by molar mass, not a printed value. Like-named read-outs stand apart in the source and are kept apart here.

What was measured:
Experiment in all cases: Bacterial susceptibility testing (MIC, broth microdilution)
Assay type in all cases: cell-based
E. coli ATCC25922 = conditions: Escherichia coli
Summary of the method: (§1)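 CLSI broth microdilution was run in cation-adjusted Mueller-Hinton broth with an inoculum of 3×10^5–7×10^5 CFU/mL and 2-fold compound dilutions. Plates were incubated in ambient air at 35° C for 18-24 h. MIC was the lowest concentration preventing visible growth (OD600 nm<0.05).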

K. pneumoniae ATCC13883 = conditions: Klebsiella pneumoniae
Summary of the method: as §1

P. aeruginosa ATCC27853 = conditions: Pseudomonas aeruginosa
Summary of the method: as §1

P. aeruginosa PAO1 = conditions: Pseudomonas aeruginosa
Summary of the method: as §1

[1] = ATCC25922, broth microdilution, cation adjusted Mueller-Hinton Broth, 35° C., 18-24 h, read-out: E. coli ATCC25922 MIC
[2] = ATCC13883, broth microdilution, cation adjusted Mueller-Hinton Broth, 35° C., 18-24 h, read-out: K. pneumoniae ATCC13883 MIC
[3] = ATCC27853, broth microdilution, cation adjusted Mueller-Hinton Broth, 35° C., 18-24 h, read-out: P. aeruginosa ATCC27853 MIC
[4] = PAO1, broth microdilution, cation adjusted Mueller-Hinton Broth, 35° C., 18-24 h, read-out: P. aeruginosa PAO1 MIC
[5] = ATCC25922, read-out: E. coli ATCC25922 MIC
[6] = ATCC13883, read-out: K. pneumoniae ATCC13883 MIC
[7] = ATCC27853, read-out: P. aeruginosa ATCC27853 MIC
[8] = PAO1, read-out: P. aeruginosa PAO1 MIC

C[C@H](O)c1nccn1[C@@H](C#Cc1ccc(-c2ccc(NC3CC(NCC#N)C3)cc2)cc1)CO (stereo partly drawn) [Compound 68, 2-((3-((4′-((S)-4-hydroxy-3-(2-((S)-1-hydroxyethyl)-1H-imidazol-1-yl)but-1-yn-1-yl)-[1,1′-biphenyl]-4-yl)amino)cyclobutyl)amino) acetonitrile]
MIC (E. coli ATCC25922; [1]): 1 µg/mL (≈ 2.2 µM)
MIC (K. pneumoniae ATCC13883; [2]): 2 µg/mL (≈ 4.39 µM)
MIC (P. aeruginosa ATCC27853; [3]): 4 µg/mL (≈ 8.78 µM)
MIC (P. aeruginosa PAO1; [4]): 2 µg/mL (≈ 4.39 µM)

C[C@H](O)c1nccn1[C@@H](C#Cc1ccc(-c2ccc(N[C@H]3COC[C@@H]3O)cc2)cc1)CO [Compound 71, (3R,4S)-4-((4′-((S)-4-hydroxy-3-(2-((S)-1-hydroxyethyl)-1H-imidazol-1-yl)but-1-yn-1-yl)-[1,1′-biphenyl]-4-yl)amino)tetrahydrofuran-3-ol]
MIC (E. coli ATCC25922; [1]): 2 µg/mL (≈ 4.61 µM)
MIC (K. pneumoniae ATCC13883; [2]): 4 µg/mL (≈ 9.23 µM)
MIC (P. aeruginosa ATCC27853; [3]): 4 µg/mL (≈ 9.23 µM)
MIC (P. aeruginosa PAO1; [4]): 4 µg/mL (≈ 9.23 µM)

C[C@H](O)c1nccn1[C@@H](C#Cc1ccc(-c2ccc(O[C@@H]3CCOC[C@H]3O)cc2)cc1)CO [Compound 72, (3R,4R)-4-((4′-((S)-4-hydroxy-3-(2-((S)-1-hydroxyethyl)-1H-imidazol-1-yl)but-1-yn-1-yl)-[1,1′-biphenyl]-4-yl)oxy)tetrahydro-2H-pyran-3-ol]
MIC (E. coli ATCC25922; [1]): 1 µg/mL (≈ 2.23 µM)
MIC (K. pneumoniae ATCC13883; [2]): 2 µg/mL (≈ 4.46 µM)
MIC (P. aeruginosa ATCC27853; [3]): 8 µg/mL (≈ 17.8 µM)
MIC (P. aeruginosa PAO1; [4]): 2 µg/mL (≈ 4.46 µM)

C[C@H](O)c1nccn1[C@@H](C#Cc1ccc(-c2ccc(O[C@H]3CCOC[C@@H]3O)cc2)cc1)CO [Compound 73, (3S,4S)-4-((4′-((S)-4-hydroxy-3-(2-((S)-1-hydroxyethyl)-1H-imidazol-1-yl)but-1-yn-1-yl)-[1,1′-biphenyl]-4-yl)oxy)tetrahydro-2H-pyran-3-ol]
MIC (E. coli ATCC25922; [1]): 2 µg/mL (≈ 4.46 µM)
MIC (K. pneumoniae ATCC13883; [2]): 2 µg/mL (≈ 4.46 µM)
MIC (P. aeruginosa ATCC27853; [3]): 8 µg/mL (≈ 17.8 µM)
MIC (P. aeruginosa PAO1; [4]): 2 µg/mL (≈ 4.46 µM)

C[C@H](O)c1nccn1[C@@H](C#Cc1ccc(-c2ccc(N[C@@H]3CCC[C@H]3O)cc2)cc1)CO [Compound 78, (1R,2R)-2-((4′-((S)-4-hydroxy-3-(2-((S)-1-hydroxyethyl)-1H-imidazol-1-yl)but-1-yn-1-yl)-[1,1′-biphenyl]-4-yl)amino)cyclopentan-1-ol]
MIC (E. coli ATCC25922; [1]): 1 µg/mL (≈ 2.32 µM)
MIC (K. pneumoniae ATCC13883; [2]): 4 µg/mL (≈ 9.27 µM)
MIC (P. aeruginosa ATCC27853; [3]): 4 µg/mL (≈ 9.27 µM)
MIC (P. aeruginosa PAO1; [4]): 4 µg/mL (≈ 9.27 µM)

C[C@H](O)c1nccn1[C@@H](C#Cc1ccc(-c2ccc(NC3CN(CCC#N)C3)cc2)cc1)CO [Compound 79, 3-(3-((4′-((S)-4-hydroxy-3-(2-((S)-1-hydroxyethyl)-1H-imidazol-1-yl)but-1-yn-1-yl)-[1,1′-biphenyl]-4-yl)amino)azetidin-1-yl)propanenitrile]
MIC (E. coli ATCC25922; [5]): 1 µg/mL (≈ 2.2 µM)
MIC (K. pneumoniae ATCC13883; [6]): 8 µg/mL (≈ 17.6 µM)
MIC (P. aeruginosa ATCC27853; [7]): 4 µg/mL (≈ 8.78 µM)
MIC (P. aeruginosa PAO1; [8]): 2 µg/mL (≈ 4.39 µM)

C[C@H](O)c1nccn1[C@@H](C#Cc1ccc(-c2ccc(OCC3(C)COC3)cc2)cc1)CO [Compound 80, (S)-2-(2-((S)-1-hydroxyethyl)-1H-imidazol-1-yl)-4-(4′-((3-methyloxetan-3-yl)methoxy)-[1,1′-biphenyl]-4-yl)but-3-yn-1-ol]
MIC (E. coli ATCC25922; [1]): 0.5 µg/mL (≈ 1.16 µM)
MIC (K. pneumoniae ATCC13883; [2]): 2 µg/mL (≈ 4.62 µM)
MIC (P. aeruginosa ATCC27853; [3]): 4 µg/mL (≈ 9.25 µM)
MIC (P. aeruginosa PAO1; [4]): 2 µg/mL (≈ 4.62 µM)

C[C@H](O)c1nccn1[C@@H](C#Cc1ccc(-c2ccc(NC3CC3)cc2)cc1)CO [Compound 81, (S)-4-(4′-(cyclopropylamino)-[1,1′-biphenyl]-4-yl)-2-(2-((S)-1-hydroxyethyl)-1H-imidazol-1-yl)but-3-yn-1-ol]
MIC (E. coli ATCC25922; [5]): 0.25 µg/mL (≈ 0.645 µM)
MIC (K. pneumoniae ATCC13883; [6]): 0.5 µg/mL (≈ 1.29 µM)
MIC (P. aeruginosa ATCC27853; [7]): 8 µg/mL (≈ 20.6 µM)
MIC (P. aeruginosa PAO1; [8]): 2 µg/mL (≈ 5.16 µM)

C[C@H](O)c1nccn1[C@@H](C#Cc1ccc(-c2ccc3c(c2)OCCO3)cc1)CO [Compound 82, (S)-4-(4-(2,3-dihydrobenzo[b][1,4]dioxin-6-yl)phenyl)-2-(2-((S)-1-hydroxyethyl)-1H-imidazol-1-yl) but-3-yn-1-ol]
MIC (E. coli ATCC25922; [1]): 0.25 µg/mL (≈ 0.64 µM)
MIC (K. pneumoniae ATCC13883; [2]): 1 µg/mL (≈ 2.56 µM)
MIC (P. aeruginosa ATCC27853; [3]): > 32 µg/mL
MIC (P. aeruginosa PAO1; [4]): 4 µg/mL (≈ 10.2 µM)

C[C@H](O)c1nccn1[C@@H](C#Cc1ccc(-c2ccc3c(c2)NCCO3)cc1)CO [Compound 83, (S)-4-(4-(3,4-dihydro-2H-benzo[b][1,4]oxazin-6-yl)phenyl)-2-(2-((S)-1-hydroxyethyl)-1H-imidazol-1-yl)but-3-yn-1-ol]
MIC (E. coli ATCC25922; [1]): 2 µg/mL (≈ 5.14 µM)
MIC (K. pneumoniae ATCC13883; [2]): 4 µg/mL (≈ 10.3 µM)
MIC (P. aeruginosa ATCC27853; [3]): > 32 µg/mL
MIC (P. aeruginosa PAO1; [4]): 16 µg/mL (≈ 41.1 µM)

C[C@H](O)c1nccn1[C@@H](C#Cc1ccc(-c2ccc3c(c2)NC(=O)C3)cc1)CO [Compound 84, 6-(4-((S)-4-hydroxy-3-(2-((S)-1-hydroxyethyl)-1H-imidazol-1-yl)but-1-yn-1-yl)phenyl)indolin-2-one]
MIC (E. coli ATCC25922; [1]): 8 µg/mL (≈ 20.6 µM)
MIC (K. pneumoniae ATCC13883; [2]): 32 µg/mL (≈ 82.6 µM)
MIC (P. aeruginosa ATCC27853; [3]): 16 µg/mL (≈ 41.3 µM)
MIC (P. aeruginosa PAO1; [4]): 8 µg/mL (≈ 20.6 µM)

C[C@H](O)c1nccn1[C@@H](C#Cc1ccc(-c2ccc3c(c2)CCN3)cc1)CO [Compound 85, (S)-2-(2-((S)-1-hydroxyethyl)-1H-imidazol-1-yl)-4-(4-(indolin-5-yl)phenyl)but-3-yn-1-ol]
MIC (E. coli ATCC25922; [1]): 1 µg/mL (≈ 2.68 µM)
MIC (K. pneumoniae ATCC13883; [2]): 2 µg/mL (≈ 5.36 µM)
MIC (P. aeruginosa ATCC27853; [3]): > 32 µg/mL
MIC (P. aeruginosa PAO1; [4]): 16 µg/mL (≈ 42.8 µM)

C[C@H](O)c1nccn1[C@@H](C#Cc1ccc(-c2ccc(OC3CN(CC(F)(F)F)C3)cc2)cc1)CO [Compound 86, (S)-2-(2-((S)-1-hydroxyethyl)-1H-imidazol-1-yl)-4-(4′-((1-(2,2,2-trifluoroethyl)azetidin-3-yl)oxy)-[1,1′-biphenyl]-4-yl)but-3-yn-1-ol]
MIC (E. coli ATCC25922; [5]): 1 µg/mL (≈ 2.06 µM)
MIC (K. pneumoniae ATCC13883; [6]): 2 µg/mL (≈ 4.12 µM)
MIC (P. aeruginosa ATCC27853; [7]): 16 µg/mL (≈ 33 µM)
MIC (P. aeruginosa PAO1; [8]): 4 µg/mL (≈ 8.24 µM)

C[C@H](O)c1nccn1[C@@H](C#Cc1ccc(-c2ccc(OC3CN(C4(C#N)COC4)C3)cc2)cc1)CO [Compound 87, 3-(3-((4′-((S)-4-hydroxy-3-(2-((S)-1-hydroxyethyl)-1H-imidazol-1-yl)but-1-yn-1-yl)-[1,1′-biphenyl]-4-yl)oxy)azetidin-1-yl)oxetane-3-carbonitrile]
MIC (E. coli ATCC25922; [1]): 2 µg/mL (≈ 4.13 µM)
MIC (K. pneumoniae ATCC13883; [2]): 4 µg/mL (≈ 8.25 µM)
MIC (P. aeruginosa ATCC27853; [3]): 8 µg/mL (≈ 16.5 µM)
MIC (P. aeruginosa PAO1; [4]): 4 µg/mL (≈ 8.25 µM)

CC(=O)N1CC(Oc2ccc(-c3ccc(C#C[C@@H](CO)n4ccnc4[C@H](C)O)cc3)cc2)C1 [Compound 88, 1-(3-((4′-((S)-4-hydroxy-3-(2-((S)-1-hydroxyethyl)-1H-imidazol-1-yl)but-1-yn-1-yl)-[1,1′-biphenyl]-4-yl)oxy)azetidin-1-yl)ethan-1-one]
MIC (E. coli ATCC25922; [5]): 1 µg/mL (≈ 2.24 µM)
MIC (K. pneumoniae ATCC13883; [6]): 2 µg/mL (≈ 4.49 µM)
MIC (P. aeruginosa ATCC27853; [7]): 4 µg/mL (≈ 8.98 µM)
MIC (P. aeruginosa PAO1; [8]): 2 µg/mL (≈ 4.49 µM)

C[C@H](O)c1nccn1[C@@H](C#Cc1ccc(-c2ccc(OC3CN(S(C)(=O)=O)C3)cc2)cc1)CO [Compound 89, (S)-2-(2-((S)-1-hydroxyethyl)-1H-imidazol-1-yl)-4-(4′-((1-(methylsulfonyl)azetidin-3-yl)oxy)-[1,1′-biphenyl]-4-yl)but-3-yn-1-ol]
MIC (E. coli ATCC25922; [5]): 1 µg/mL (≈ 2.08 µM)
MIC (K. pneumoniae ATCC13883; [6]): 2 µg/mL (≈ 4.15 µM)
MIC (P. aeruginosa ATCC27853; [7]): 8 µg/mL (≈ 16.6 µM)
MIC (P. aeruginosa PAO1; [8]): 4 µg/mL (≈ 8.31 µM)

CNC(=O)N1CC(Oc2ccc(-c3ccc(C#C[C@@H](CO)n4ccnc4[C@H](C)O)cc3)cc2)C1 [Compound 90, 3-((4′-((S)-4-hydroxy-3-(2-((S)-1-hydroxyethyl)-1H-imidazol-1-yl)but-1-yn-1-yl)-[1,1′-biphenyl]-4-yl)oxy)-N-methylazetidine-1-carboxamide]
MIC (E. coli ATCC25922; [1]): 2 µg/mL (≈ 4.34 µM)
MIC (K. pneumoniae ATCC13883; [2]): 4 µg/mL (≈ 8.69 µM)
MIC (P. aeruginosa ATCC27853; [3]): 2 µg/mL (≈ 4.34 µM)
MIC (P. aeruginosa PAO1; [4]): 1 µg/mL (≈ 2.17 µM)

C[C@H](O)c1nccn1[C@@H](C#Cc1ccc(-c2ccc(OC3CN(C(=O)CO)C3)cc2)cc1)CO [Compound 91, 2-hydroxy-1-(3-((4′-((S)-4-hydroxy-3-(2-((S)-1-hydroxyethyl)-1H-imidazol-1-yl)but-1-yn-1-yl)-[1,1′-biphenyl]-4-yl)oxy)azetidin-1-yl)ethan-1-one]
MIC (E. coli ATCC25922; [5]): 2 µg/mL (≈ 4.33 µM)
MIC (K. pneumoniae ATCC13883; [6]): 4 µg/mL (≈ 8.67 µM)
MIC (P. aeruginosa ATCC27853; [7]): 4 µg/mL (≈ 8.67 µM)
MIC (P. aeruginosa PAO1; [8]): 2 µg/mL (≈ 4.33 µM)

C[C@H](O)c1nccn1[C@@H](C#Cc1ccc(-c2ccc(OC3CN(CC#N)C3)cc2)cc1)CO [Compound 92, 2-(3-((4′-((S)-4-hydroxy-3-(2-((S)-1-hydroxyethyl)-1H-imidazol-1-yl)but-1-yn-1-yl)-[1,1′-biphenyl]-4-yl)oxy)azetidin-1-yl)acetonitrile]
MIC (E. coli ATCC25922; [5]): 0.75 µg/mL (≈ 1.69 µM)
MIC (K. pneumoniae ATCC13883; [6]): 1.5 µg/mL (≈ 3.39 µM)
MIC (P. aeruginosa ATCC27853; [7]): 6 µg/mL (≈ 13.6 µM)
MIC (P. aeruginosa PAO1; [8]): 3 µg/mL (≈ 6.78 µM)
